Measurements from publication PMC9688344, “[^225Ac]Ac-SibuDAB for Targeted Alpha Therapy of Prostate Cancer: Preclinical Evaluation and Comparison with [^225Ac]Ac-PSMA-617” (Cancers, 2022).
pKd: −log10 of the molar value.

Columns and labels:
[1] = PBS/n-octanol distribution coefficient (logD); assay type: physicochemical; details: PBS pH 7.4/n-octanol
[2] = Radioligand integrity by thin-layer chromatography; assay type: physicochemical; details: over a period of 48 h
Description: The PSMA ligands used in this study were synthesized using solid-phase chemistry methods as previously reported. The labeling of the PSMA ligands with actinium-225 was performed at ITM Medical Isotopes GmbH, Munich, Germany (Supplementary Material: Section S1). The radioligands (~50 kBq/nmol; ~0.5 MBq/mL) were shipped to the Paul Scherrer Institute (PSI) overnight followed by assessing their integrity using thin-layer chromatography. […] Depending on the experiment, the molar activity of the radioligands was adjusted by adding unlabeled ligand and the final formulation was prepared by adding vehicle (saline with 0.05% bovine serum albumin (BSA)) to obtain the desired activity concentration. Radiolabeling of SibuDAB with lutetium-177 (5–10 MBq/nmol) was performed as previously reported.

[3] = system: PSMA-positive PC-3 PIP cells; assay: Cell uptake and internalization; assay type: cell-based; details: 4 h incubation; % of total added activity
[4] = system: PSMA-negative PC-3 flu cells; assay: Cell uptake in PSMA-negative cells; assay type: cell-based
[5] = biological target: T1, PSMA (Homo sapiens, UniProt Q04609); assay: PSMA-binding affinity (KD values) on PC-3 PIP cells; details: on ice
T1 construct: expressed in transfected cells; host or cells: PC-3 PIP prostate cancer cells (transduced to express PSMA), provided by Prof; Dr. Martin Pomper, Johns Hopkins University
T1 sequence (Q04609 whole entry): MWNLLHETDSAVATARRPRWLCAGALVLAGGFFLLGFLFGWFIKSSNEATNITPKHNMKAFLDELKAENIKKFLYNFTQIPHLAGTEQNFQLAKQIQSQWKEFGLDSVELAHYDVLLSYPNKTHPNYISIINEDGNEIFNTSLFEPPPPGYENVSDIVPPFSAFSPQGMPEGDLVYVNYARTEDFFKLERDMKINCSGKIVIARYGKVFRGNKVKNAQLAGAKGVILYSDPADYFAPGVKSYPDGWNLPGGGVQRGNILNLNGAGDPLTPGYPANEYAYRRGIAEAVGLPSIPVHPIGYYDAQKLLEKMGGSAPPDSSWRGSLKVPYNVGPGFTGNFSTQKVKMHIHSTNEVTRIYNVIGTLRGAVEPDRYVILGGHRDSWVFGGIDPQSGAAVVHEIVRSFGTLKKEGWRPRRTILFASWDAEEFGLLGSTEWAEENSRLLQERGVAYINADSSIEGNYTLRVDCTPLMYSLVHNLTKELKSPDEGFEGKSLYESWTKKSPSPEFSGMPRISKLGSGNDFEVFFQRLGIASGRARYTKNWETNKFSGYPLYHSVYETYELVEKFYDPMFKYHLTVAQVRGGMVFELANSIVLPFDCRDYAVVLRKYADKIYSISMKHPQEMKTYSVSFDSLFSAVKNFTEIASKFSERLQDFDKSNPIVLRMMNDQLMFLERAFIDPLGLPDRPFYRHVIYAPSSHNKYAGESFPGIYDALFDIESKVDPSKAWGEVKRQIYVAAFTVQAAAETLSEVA

[6] = system: PC3-PIP/flu tumor-bearing mice; assay: Biodistribution studies; assay type: in vivo, BALB/c nude mice
[7] = system: PSMA-negative PC-3 flu tumors; assay: Therapy study in PC-3 flu tumor-bearing mice; assay type: in vivo, BALB/c nude mice; details: 30 kBq
Description: Five days after subcutaneous inoculation of four groups of mice with either PC-3 PIP or PC-3 flu tumor cells on the right shoulder (4 × 10^6 cells in 100 μL HBSS), the mice were intravenously injected with either vehicle only (saline with 0.05% BSA, n = 6 and n = 4, respectively) or with 30 kBq [^225Ac]Ac-SibuDAB (1 nmol per mouse; n = 4 per group) diluted in vehicle (Table 1).
After administration of the radioligands, the mice were monitored over 8 weeks using the same measures as previously published by Umbricht et al.. The relative body mass was defined as [BMx/BM0], where BMx is the body mass in grams at a given Day x and BM0 is the body mass in grams at Day 0. The tumor dimension was determined by measuring the longest tumor axis (L) and its perpendicular axis (W) with a digital caliper. The tumor volume (V) was calculated according to the equation [V = 0.5 × (LW^2)]. The relative tumor volume was defined as [TVx/TV0], where TVx is the tumor volume in mm^3 at a given Day x, and TV0 is the tumor volume in mm^3 at Day 0. Endpoint criteria that required euthanasia were defined as (i) body mass loss of >15%, (ii) a tumor volume of >800 mm^3, (iii) a combination of body mass loss of >10% and a tumor volume of >700 mm^3 or, (iv) signs of unease and pain or a combination thereof using a scoring system as previously reported. The median survival of mice of each group was assessed with Kaplan–Meier curves. Potential early side effects for mice that survived until study end were determined based on blood chemistry and organ-to-brain mass ratios on Day 56 by comparison to values obtained from an additional group of therapy-naïve mice (n = 4) without tumors but of the same age (Supplementary Material: Section S9).

CC(C)Cc1ccc(C(C)C(=O)NC(CCN)C(=O)NCCCCC(NC(=O)CN2CCN(CC(=O)[O-])CCN(CC(=O)[O-])CCN(CC(=O)[O-])CC2)C(=O)NCC2CCC(C(=O)NC(Cc3ccc4ccccc4c3)C(=O)NCCCCC(NC(=O)NC(CCC(=O)O)C(=O)O)C(=O)O)CC2)cc1.[225Ac+3] (stereo not shown) [[^225Ac]Ac-SibuDAB]
logD value [1]: −2.5 ± 0.1
intact radioligand [2]: > 99%
Cell uptake [3]: 59 ± 1%
Internalization (internalized fraction) [3]: 25 ± 5%
Cell uptake [4]: < 1%
pKd [5]: 7.77
Blood, accumulated activity ([6]; 1 h p.i.): 23 ± 2 % IA/g
Bone, accumulated activity ([6]; 1 h p.i.): 2.5 ± 0.2 % IA/g
Heart, accumulated activity ([6]; 1 h p.i.): 7.4 ± 0.9 % IA/g
Intestines, accumulated activity ([6]; 1 h p.i.): 2.6 ± 0.5 % IA/g
Kidneys, accumulated activity ([6]; 1 h p.i.): 18 ± 1 % IA/g
Liver, accumulated activity ([6]; 1 h p.i.): 4.4 ± 0.4 % IA/g
Lung, accumulated activity ([6]; 1 h p.i.): 19 ± 2 % IA/g
Muscle, accumulated activity ([6]; 1 h p.i.): 2.0 ± 0.4 % IA/g
PC-3 PIP tumor, accumulated activity ([6]; 1 h p.i.): 20 ± 2 % IA/g
PC-3 flu tumor, accumulated activity ([6]; 1 h p.i.): 4.2 ± 1.1 % IA/g
Salivary glands, accumulated activity ([6]; 1 h p.i.): 4.7 ± 0.4 % IA/g
Spleen, accumulated activity ([6]; 1 h p.i.): 3.5 ± 0.3 % IA/g
Stomach, accumulated activity ([6]; 1 h p.i.): 2.4 ± 0.4 % IA/g
Tumor-to-blood ratio ([6]; 1 h p.i.): 0.9 ± 0.1
Tumor-to-kidney ratio ([6]; 1 h p.i.): 1.2 ± 0.1
Tumor-to-liver ratio ([6]; 1 h p.i.): 4.6 ± 0.5
Blood, accumulated activity ([6]; 4 h p.i.): 16 ± 2 % IA/g
Bone, accumulated activity ([6]; 4 h p.i.): 2.2 ± 0.5 % IA/g
Heart, accumulated activity ([6]; 4 h p.i.): 5.5 ± 0.7 % IA/g
Intestines, accumulated activity ([6]; 4 h p.i.): 2.2 ± 0.3 % IA/g
Kidneys, accumulated activity ([6]; 4 h p.i.): 19 ± 1 % IA/g
Liver, accumulated activity ([6]; 4 h p.i.): 4.0 ± 0.3 % IA/g
Lung, accumulated activity ([6]; 4 h p.i.): 10 ± 2 % IA/g
Muscle, accumulated activity ([6]; 4 h p.i.): 1.9 ± 0.2 % IA/g
PC-3 PIP tumor, accumulated activity ([6]; 4 h p.i.): 45 ± 5 % IA/g
PC-3 flu tumor, accumulated activity ([6]; 4 h p.i.): 4.1 ± 0.8 % IA/g
Salivary glands, accumulated activity ([6]; 4 h p.i.): 3.7 ± 0.2 % IA/g
Spleen, accumulated activity ([6]; 4 h p.i.): 3.0 ± 0.5 % IA/g
Stomach, accumulated activity ([6]; 4 h p.i.): 1.8 ± 0.3 % IA/g
Tumor-to-blood ratio ([6]; 4 h p.i.): 2.9 ± 0.3
Tumor-to-kidney ratio ([6]; 4 h p.i.): 2.3 ± 0.1
Tumor-to-liver ratio ([6]; 4 h p.i.): 11 ± 1
Blood, accumulated activity ([6]; 24 h p.i.): 3.3 ± 0.7 % IA/g
Bone, accumulated activity ([6]; 24 h p.i.): 0.81 ± 0.10 % IA/g
Heart, accumulated activity ([6]; 24 h p.i.): 1.5 ± 0.4 % IA/g
Intestines, accumulated activity ([6]; 24 h p.i.): 0.85 ± 0.14 % IA/g
Kidneys, accumulated activity ([6]; 24 h p.i.): 18 ± 2 % IA/g
Liver, accumulated activity ([6]; 24 h p.i.): 3.3 ± 0.4 % IA/g
Lung, accumulated activity ([6]; 24 h p.i.): 2.9 ± 0.4 % IA/g
Muscle, accumulated activity ([6]; 24 h p.i.): 0.58 ± 0.06 % IA/g
PC-3 PIP tumor, accumulated activity ([6]; 24 h p.i.): 80 ± 8 % IA/g
PC-3 flu tumor, accumulated activity ([6]; 24 h p.i.): 2.4 ± 0.9 % IA/g
Salivary glands, accumulated activity ([6]; 24 h p.i.): 1.7 ± 0.2 % IA/g
Spleen, accumulated activity ([6]; 24 h p.i.): 2.3 ± 0.5 % IA/g
Stomach, accumulated activity ([6]; 24 h p.i.): 0.72 ± 0.14 % IA/g
Tumor-to-blood ratio ([6]; 24 h p.i.): 25 ± 6
Tumor-to-kidney ratio ([6]; 24 h p.i.): 4.7 ± 0.9
Tumor-to-liver ratio ([6]; 24 h p.i.): 25 ± 5
Blood, accumulated activity ([6]; 48 h p.i.): 1.1 ± 0.2 % IA/g
Bone, accumulated activity ([6]; 48 h p.i.): 0.48 ± 0.09 % IA/g
Heart, accumulated activity ([6]; 48 h p.i.): 0.73 ± 0.17 % IA/g
Intestines, accumulated activity ([6]; 48 h p.i.): 0.40 ± 0.08 % IA/g
Kidneys, accumulated activity ([6]; 48 h p.i.): 8.6 ± 1.1 % IA/g
Liver, accumulated activity ([6]; 48 h p.i.): 2.7 ± 0.5 % IA/g
Lung, accumulated activity ([6]; 48 h p.i.): 1.3 ± 0.3 % IA/g
Muscle, accumulated activity ([6]; 48 h p.i.): 0.30 ± 0.11 % IA/g
PC-3 PIP tumor, accumulated activity ([6]; 48 h p.i.): 64 ± 11 % IA/g
PC-3 flu tumor, accumulated activity ([6]; 48 h p.i.): 1.5 ± 0.4 % IA/g
Salivary glands, accumulated activity ([6]; 48 h p.i.): 0.92 ± 0.19 % IA/g
Spleen, accumulated activity ([6]; 48 h p.i.): 1.9 ± 0.5 % IA/g
Stomach, accumulated activity ([6]; 48 h p.i.): 0.38 ± 0.04 % IA/g
Tumor-to-blood ratio ([6]; 48 h p.i.): 62 ± 11
Tumor-to-kidney ratio ([6]; 48 h p.i.): 7.4 ± 1.3
Tumor-to-liver ratio ([6]; 48 h p.i.): 24 ± 4
tumor uptake, higher than for [225Ac]Ac-PSMA-617 ([6]; 48 h p.i., PC-3 PIP tumor): 2 fold
Day of first endpoint [7]: 18
Day of last endpoint [7]: 27
Median Survival [7]: 25 days
Number of Mice Alive on Day 56 [7]: 0/4
Tumor growth delay [7]: not significantly delay the growth
